# Test results: PMC5706900, “Distinct mobilization of leukocytes and hematopoietic stem cells by CXCR4 peptide antagonist LY2510924 and monoclonal antibody LY2624587” (Oncotarget, 2017)
# Positions of bridges follow the written chain, without caps; N, C: chain ends. Non-standard residues stand in square brackets, D forms with d. Residues, ends and D or L forms follow the SMILES beside them. 2Nal = N[C@@H](Cc1ccc2ccccc2c1)C(=O)O; Lys(iPr) = CC(C)NCCCC[C@H](N)C(=O)O
# Experiments:
# WBC count = settings: ref [43], cited from earlier work
# leukocytes and HSCs = settings: ref [12], [20], [24]; cited from earlier work
# Source text: In addition to tumor microenvironments, SDF-1 is constitutively expressed at high levels in bone marrow and is an efficient chemotactic factor for immune cells including T-cells, B-cells, and monocytes. […] There are two major mechanisms involved in this function: down-regulation of cell surface CXCR4 by internalization or proteolysis, and antagonism via direct blockade of SDF-1/CXCR4 interaction.
# [1] = ref [43]; cited from earlier work
# ovarian cancer models = settings: ref [32]; cited from earlier work
# Source text: (§1) Due to the critical role of SDF-1/CXCR4 interaction in immune cell retention and mobilization, CXCR4 inhibition may lead to T-cell infiltration and redistribution in tumor microenvironments.
# pancreatic cancer = settings: mice with pancreatic cancer; ref [7]; cited from earlier work
# Source text: as §1
# hepatic carcinoma models = settings: ref [30]; cited from earlier work
# Source text: as §1
# human CXCR4 = biological target: T1, human CXCR4 (Homo sapiens, UniProt P61073); assay: SDF-1/CXCR4 binding assay, [125I]-SDF-1α, human leukemia CCRF-CEM cells
# T1 construct: human leukemia CCRF-CEM cells that express endogenous CXCR4; endogenous in cells; host or cells: CCRF-CEM human leukemia cells
# Method: (§2) Preclinical characterization of both agents was previously described. Interaction of SDF-1/CXCR4 was assayed in human leukemia CCRF-CEM cells expressing high levels of human CXCR4, MDA-MB-435 cells stably transfected with monkey CXCR4, and mouse 2PK-3 lymphoma cells expressing high levels of mouse CXCR4.
# (§3) Figure 1 LY2510924 peptide and LY2624587 antibody inhibition of SDF-1/CXCR4 binding in human, monkey, and mouse cells LY2510924 (peptide antagonist) inhibits binding in (A) human, (B) monkey, and (C) mouse cells. LY2624587 (CXCR4 mAb) inhibits binding in (D) human, (E) monkey, and (F) mouse cells. Human cells = leukemia CCRF-CEM cells with high-level expression of human CXCR4, monkey cells = MDA-MB-435 cells stably transfected with monkey CXCR4, and mouse cells = 2PK-3 lymphoma cells with high-level expression of mouse CXCR4. Ki = inhibitor constant.
# (§4) The SDF-1/CXCR4 binding assay used human leukemia CCRF-CEM cells that express endogenous CXCR4 and [125I]-labeled recombinant human SDF-1α (PeproTech EC Ltd., London, UK) as previously described. The same assay was conducted for breast cancer MDA-MB-435 cells transfected with monkey CXCR4 and mouse lymphoma 2PK-3 cells that express endogenous mouse CXCR4. Plates were counted in a 1450 Microbeta Liquid Scintillation and Luminescence Counter (Wallac) in SPA mode.
# mouse CXCR4 = biological target: T2, mouse CXCR4 (Mus musculus, UniProt P70658); assay: SDF-1/CXCR4 binding assay, mouse lymphoma 2PK-3 cells
# T2 construct: mouse lymphoma 2PK-3 cells that express endogenous mouse CXCR4; endogenous in cells; host or cells: 2PK-3 mouse lymphoma cells
# Method: as §2, §3, §4
# monkey CXCR4 = biological target: T3, monkey CXCR4 (Macaca fascicularis, UniProt Q28474); assay: SDF-1/CXCR4 binding assay, MDA-MB-435 cells transfected with monkey CXCR4; settings: MDA-MB-435 cells stably transfected with monkey CXCR4; SPA mode; read-out: IC50, inhibition of SDF-1 binding
# T3 construct: expressed in transfected cells; host or cells: MDA-MB-435 cells
# Method: as §2, §3, §4
# [2] = 1- to 30-mg/day, patients with advanced cancer; ref [9]; cited from earlier work
# Source text: We developed LY2624587, a fully humanized CXCR4 mAb that is among the first-in-class anti-CXCR4 mAbs developed, for the treatment of patients with cancer. […] A role for LY2624587 antibody in mobilizing HSCs and WBCs has not been previously reported. We also developed LY25 ...
# [3] = system: patients with chronic lymphocytic leukemia, normal lymphocytes; settings: ref [40]; cited from earlier work
# Source text: (§5) These distinct in vitro properties may be related to the differential mobilization of WBCs and HSCs in vivo, but the mechanism is not yet understood and these differences cannot fully explain why LY2624587 antibody induced only minimal changes in WBCs and HSCs in monkeys and humans. […] Weak immune cell mobilization by LY2624587 antibody may be a class phenomenon of mAb agents. Ano ...
# [4] = system: patients with multiple myeloma, peripheral leukocytes; settings: ref [41]; cited from earlier work
# Source text: as §5
# hematologic malignancies = settings: ref [11], [39]; cited from earlier work
# Source text: as §5
# T2 sequence (P70658 whole entry): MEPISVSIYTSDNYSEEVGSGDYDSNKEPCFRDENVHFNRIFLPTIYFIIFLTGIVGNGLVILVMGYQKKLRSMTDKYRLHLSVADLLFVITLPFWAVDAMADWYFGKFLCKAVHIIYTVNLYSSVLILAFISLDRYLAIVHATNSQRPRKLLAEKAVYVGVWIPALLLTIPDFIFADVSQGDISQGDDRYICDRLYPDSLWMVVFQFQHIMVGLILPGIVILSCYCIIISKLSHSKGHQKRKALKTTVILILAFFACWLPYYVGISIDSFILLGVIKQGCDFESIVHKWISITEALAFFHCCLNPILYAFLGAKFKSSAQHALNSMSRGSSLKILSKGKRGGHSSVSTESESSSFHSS
# T1 sequence (P61073 whole entry): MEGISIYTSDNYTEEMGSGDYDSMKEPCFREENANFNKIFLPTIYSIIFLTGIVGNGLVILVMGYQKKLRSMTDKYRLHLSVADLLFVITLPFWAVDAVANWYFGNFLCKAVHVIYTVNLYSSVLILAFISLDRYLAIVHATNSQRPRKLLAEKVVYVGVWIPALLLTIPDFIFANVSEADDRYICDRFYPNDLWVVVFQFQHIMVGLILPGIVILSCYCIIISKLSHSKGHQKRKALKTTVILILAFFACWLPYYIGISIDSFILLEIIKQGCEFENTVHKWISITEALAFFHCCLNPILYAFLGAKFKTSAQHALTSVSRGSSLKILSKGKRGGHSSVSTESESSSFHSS
# T3 sequence (Q28474 whole entry): as the sequence (P61073 whole entry) above, with M24I, N35H, K38R, R146K, N176S counted along it
molecule,measurement,setting,value
c1cc(CN2CCCNCCNCCCNCC2)ccc1CN1CCCNCCNCCCNCC1 [AMD3100],duration of single dose effect,WBC count,appeared to last only a few hours
same,WBC count at 24 hours,"WBC count; single dose, 24 hours",reduced to near baseline level at 24 hours
same,mobilization of WBCs including neutrophils and HSCs,leukocytes and HSCs,mobilize both white blood cells (WBCs) including neutrophils and HSCs
same,safety on chronic dosing schedule,[1],poses significant safety concerns due to compound-associated toxicity
same,effect on intra-tumor regulatory T-cells,ovarian cancer models,selective reduction of intra-tumor regulatory T-cells
same,effect on tumor apoptosis,ovarian cancer models,increased tumor apoptosis
same,T-cell accumulation near tumors,pancreatic cancer,rapid T-cell accumulation near tumors
same,"combination with anti–PD-L1 mAb, tumor cell elimination",pancreatic cancer,synergistic with an anti–PD-L1 mAb to eliminate tumor cells
same,combination with anti–PD-1,hepatic carcinoma models,augmented anti–PD-1 combination therapy efficacy
CC(C)NCCCC[C@H](NC(=O)[C@H]1CCC(=O)N[C@@H](Cc2ccccc2)C(=O)N[C@@H](Cc2ccc(O)cc2)C(=O)N[C@@H](CCCCNC(C)C)C(=O)N[C@H](CCCNC(=N)N)C(=O)N[C@@H](Cc2ccc3ccccc3c2)C(=O)NCC(=O)N1)C(N)=O [LY2510924] (FY[Lys(iPr)][dR][2Nal]G[dE][Lys(iPr)]-NH2; lactam N-7),Ki,human CXCR4,0.0495 nM
same,IC50,"human CXCR4; human leukemia CCRF-CEM cells, [125I]-labeled human SDF-1α, SPA mode, read-out: IC50, inhibition of SDF-1 binding",0.0797 nM
same,"IC50 difference, mouse versus human cells",mouse CXCR4; mouse 2PK-3 vs human CCRF-CEM,35 fold
same,"IC50 difference, mouse versus monkey cells",mouse CXCR4; mouse 2PK-3 vs monkey CXCR4 MDA-MB-435,29 fold
same,IC50,"mouse CXCR4; mouse lymphoma 2PK-3 cells, SPA mode, read-out: IC50, inhibition of SDF-1 binding",2.83 nM
same,IC50,monkey CXCR4,0.097 nM
same,pharmacokinetic and safety profiles,[2],favorable pharmacokinetic and safety profiles
BMS-936564/MDX-1338: CXCR4-specific mAb in clinical development,increase in absolute number of normal lymphocytes,[3],no evidence of increase
same,duration of leukocyte increase,[4],transient
same,increase in peripheral leukocytes (median),[4],2 fold
same,antitumor and pro-apoptotic functionality,hematologic malignancies,antitumor and pro-apoptotic functionality
